One data set has as its target T1, human MAO-A (Homo sapiens, UniProt P21397).
T1 sequence (P21397 1-527): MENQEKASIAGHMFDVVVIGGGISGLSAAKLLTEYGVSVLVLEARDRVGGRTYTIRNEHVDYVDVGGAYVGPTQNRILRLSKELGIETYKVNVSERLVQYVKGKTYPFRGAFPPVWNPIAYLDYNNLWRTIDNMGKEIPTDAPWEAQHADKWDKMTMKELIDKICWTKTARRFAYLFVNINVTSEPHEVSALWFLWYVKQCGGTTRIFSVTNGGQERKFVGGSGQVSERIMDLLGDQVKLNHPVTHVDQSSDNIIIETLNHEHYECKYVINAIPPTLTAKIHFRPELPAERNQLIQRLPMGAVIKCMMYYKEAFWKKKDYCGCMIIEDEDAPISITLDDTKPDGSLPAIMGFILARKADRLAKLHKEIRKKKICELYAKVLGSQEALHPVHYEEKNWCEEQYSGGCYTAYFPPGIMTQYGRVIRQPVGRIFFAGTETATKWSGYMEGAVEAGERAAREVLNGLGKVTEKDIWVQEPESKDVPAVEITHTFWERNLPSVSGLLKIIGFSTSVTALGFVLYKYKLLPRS
The experiment in a line: Human MAO-A assay (recombinant enzyme, Amplex Red fluorescence). Conditions: for inhibition at 10 µM: read-out: human MAO-A % inhibition at 10 μM.

For the next data set, the target named is T2, rat MAO-A (Rattus norvegicus, UniProt P21396).
T2 construct: from tissue; host or cells: rat liver mitochondria (male Sprague-Dawley rats)
T2 sequence (P21396 1-526): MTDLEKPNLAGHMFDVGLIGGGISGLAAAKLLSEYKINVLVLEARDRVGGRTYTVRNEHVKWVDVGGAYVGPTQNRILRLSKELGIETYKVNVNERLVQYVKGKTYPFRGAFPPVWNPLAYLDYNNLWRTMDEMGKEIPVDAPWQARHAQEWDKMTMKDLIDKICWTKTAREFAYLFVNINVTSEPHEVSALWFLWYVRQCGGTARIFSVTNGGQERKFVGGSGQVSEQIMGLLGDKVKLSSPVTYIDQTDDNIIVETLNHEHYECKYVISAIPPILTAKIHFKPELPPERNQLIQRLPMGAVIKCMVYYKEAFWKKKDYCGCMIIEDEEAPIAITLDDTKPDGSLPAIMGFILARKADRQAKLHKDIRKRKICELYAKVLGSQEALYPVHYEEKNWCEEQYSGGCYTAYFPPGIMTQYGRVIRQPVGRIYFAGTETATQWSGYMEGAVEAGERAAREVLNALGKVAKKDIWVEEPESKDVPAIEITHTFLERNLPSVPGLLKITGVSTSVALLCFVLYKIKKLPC
The data set is described as follows: Rat MAO-A assay (Amplex Red fluorescence, rat liver mitochondria pre-treated with deprenyl). Format: biochemical. Conditions: for inhibition at 10 µM: read-out: rat MAO-A (rat liver mitochondria) % inhibition at 10 μM.

Another data set deals with T3, human MAO-B (Homo sapiens, UniProt P27338).
T3 sequence (P27338 1-520): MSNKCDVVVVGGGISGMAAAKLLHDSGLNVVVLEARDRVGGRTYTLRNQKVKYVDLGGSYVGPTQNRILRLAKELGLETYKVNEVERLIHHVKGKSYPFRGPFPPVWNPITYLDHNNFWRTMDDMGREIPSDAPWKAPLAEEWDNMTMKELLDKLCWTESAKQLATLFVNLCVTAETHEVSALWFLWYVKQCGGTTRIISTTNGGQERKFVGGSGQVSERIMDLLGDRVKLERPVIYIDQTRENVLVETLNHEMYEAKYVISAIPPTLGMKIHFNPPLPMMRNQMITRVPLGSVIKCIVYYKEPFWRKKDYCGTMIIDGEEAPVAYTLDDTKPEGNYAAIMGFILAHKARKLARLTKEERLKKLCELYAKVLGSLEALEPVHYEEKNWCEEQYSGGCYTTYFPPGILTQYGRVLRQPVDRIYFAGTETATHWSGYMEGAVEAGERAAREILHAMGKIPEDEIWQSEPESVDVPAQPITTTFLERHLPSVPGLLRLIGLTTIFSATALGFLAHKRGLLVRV
The data set is described as follows: Human MAO-B assay (recombinant enzyme, Amplex Red fluorescence). The data set is classed as biochemical. Details: purchased Sigma-Aldrich M7441; host or cells: baculovirus-infected insect cells (microsomal product). To be noted: p-tyramine 150 μM.

In a further data set the target is T4, rat MAO-B (Rattus norvegicus, UniProt P19643).
T4 construct: from tissue; host or cells: rat liver mitochondria (male Sprague-Dawley rats)
T4 sequence (P19643 1-520): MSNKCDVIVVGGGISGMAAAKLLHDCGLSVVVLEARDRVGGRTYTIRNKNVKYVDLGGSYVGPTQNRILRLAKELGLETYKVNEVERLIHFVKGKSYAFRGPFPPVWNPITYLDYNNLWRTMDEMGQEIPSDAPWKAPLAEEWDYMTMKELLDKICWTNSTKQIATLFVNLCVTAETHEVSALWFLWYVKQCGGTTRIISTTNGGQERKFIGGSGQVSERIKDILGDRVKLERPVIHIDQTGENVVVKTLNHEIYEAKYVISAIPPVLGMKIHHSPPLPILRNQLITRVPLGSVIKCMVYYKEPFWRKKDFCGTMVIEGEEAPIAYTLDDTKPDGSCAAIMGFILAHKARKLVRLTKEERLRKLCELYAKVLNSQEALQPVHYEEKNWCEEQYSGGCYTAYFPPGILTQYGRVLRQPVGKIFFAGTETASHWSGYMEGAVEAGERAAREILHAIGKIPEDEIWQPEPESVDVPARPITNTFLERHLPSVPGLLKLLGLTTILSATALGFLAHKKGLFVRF
The data set is described as follows: Rat MAO-B assay (Amplex Red fluorescence, rat liver mitochondria pre-treated with clorgyline 30 nM). The data set is classed as biochemical.

Setting [1] is: rat liver mitochondria, substrate p-tyramine, read-out: rat MAO-A (rat liver mitochondria) IC50.
Setting [2] is: at 10 μM, rat liver mitochondria.
Where [3] appears, read: rat liver mitochondria pre-treated with clorgyline 30 nM, read-out: rat MAO-B (rat liver mitochondria) IC50.
The mark [4] stands for this setting: read-out: human MAO-A IC50, recombinant human enzyme, p-tyramine 150 μM.

The structures appear in SMILES notation. Read-outs that look alike come from different tables or passages of the source.

Protocol for rat MAO-A: (§1) Male Sprague-Dawley (Harlan Sprague Dawley, Dublin, Va., US) rats (250-300 g) were sacrificed under light anesthesia and their livers were dissected. […] After homogenization, the volume is adjusted to 100 mL with the same buffer. After a low speed centrifugation (10 min at 600 g; 4° C.), the supernatant is further centrifuged at 15,000 rpm for 5 min at +4° C. The resulting pellet was resuspended in 2.0 mL of a 50 mM sodium/phosphate buffer (pH 7.4) and stored at −80° C. in aliquots of 1.0 mL each until further use.
(§2) The Amplex® Red reagent was prepared as recommended in the kit from Invitrogen (A12214). […] Clorgyline (1.0 μM) from Sigma Aldrich (M3778) was used to determine non-MAO-A enzyme activity and concentration-response curves of clorgyline serve as positive control.
Protocol for rat MAO-B: as §1, §2

In the case of `COCCn1ncc2cc(C(=O)Nc3ccc(Cl)c(Cl)c3)ccc21` [Example 21, N-(3,4-dichlorophenyl)-1-(2-methoxyethyl)-1H-indazole-5-carboxamide], the values for the inhibition at 10 µM at human MAO-A and at rat MAO-A (setting [2]) were 81% and 57%, respectively. Besides, at rat MAO-A (setting [1]), the IC50 is under 10000 nM.

Consider `O=C(Nc1ccc(F)c(F)c1)c1ccc2[nH]ncc2c1` [Example 11, N-(3,4-difluorophenyl)-1H-indazole-5-carboxamide], for which the IC50 at human MAO-B was 1.59 ± 0.16 nM; at human MAO-A, over 10000 nM; at rat MAO-A (setting [1]), over 10000 nM; on rat MAO-B (setting [3]), 8.89 ± 0.05 nM. In addition, the figures for the inhibition at 10 µM at human MAO-A and at rat MAO-A (setting [2]) were 36% and 13%, respectively.

For the molecule `Cn1cc2cc(C(=O)Nc3ccc(Cl)c(Cl)c3)ccc2n1` [Example 14, N-(3,4-dichlorophenyl)-2-methyl-2H-indazole-5-carboxamide], the results for the IC50 on human MAO-B and on rat MAO-B (setting [3]) were 1.44 ± 0.41 nM and 22.5 ± 0.6 nM, respectively.

As to `O=C(Nc1ccc(Cl)c(Cl)c1)c1ccc2[nH]ncc2c1` [Example 1], the inhibition at 10 µM came to 46% on human MAO-A and 42% on rat MAO-A (setting [2]).

Take `Cn1ncc2cc(/C=N/c3ccc(Cl)c(Cl)c3)ccc21` [Example 26, (E)-3,4-dichloro-N-((1-methyl-1H-indazole-5-yl)methylene)aniline]: the inhibition at 10 µM on human MAO-A is 57%; on rat MAO-A (setting [2]), 23%.

With `Fc1ccc(/N=C/c2ccc3[nH]ncc3c2)cc1Cl` [Example 24, (E)-N-((1H-indazol-5-yl)methylene)-3-chloro-4-fluoroaniline], the IC50 at human MAO-B was 2.1 ± 0.3 nM; at human MAO-A, under 10000 nM; on rat MAO-A it was over 10000 nM; on rat MAO-B, 6.08 ± 0.52 nM. The inhibition at 10 µM was determined as 54% at human MAO-A and 35% at rat MAO-A (setting [2]).

With `Cn1cc2cc(C(=O)Nc3ccc(F)c(F)c3)ccc2n1` [Example 20, N-(3,4-difluorophenyl)-2-methyl-2H-indazole-5-carboxamide], the IC50 came to 38.4 ± 1.8 nM on human MAO-B, 764 ± 40 nM at human MAO-A (setting [4]), 1880 ± 93 nM at rat MAO-A (setting [1]) and 221 ± 21 nM at rat MAO-B (setting [3]). Further, the inhibition at 10 µM on rat MAO-A (setting [2]) is 83%.

On to `Cn1ncc2cc(C(=O)Nc3ccc(F)c(Cl)c3)ccc21` [Example 17, N-(3-chloro-4-fluorophenyl)-1-methyl-1H-indazole-5-carboxamide], for which the inhibition at 10 µM at rat MAO-A stood at 29%. The IC50 at rat MAO-B (setting [3]) is 1.36 ± 0.13 nM.

Take `Cn1ccc2cc(C(=O)Nc3ccc(Cl)c(Cl)c3)ccc21` [Example 16, N-(3,4-dichlorophenyl)-1-methyl-1H-indole-5-carboxamide]: the melting point fell in the range of 178.9 to 180.3 °C. Besides, the inhibition at 10 µM at human MAO-A came to 13%. For the same molecule, the inhibition at 10 µM at rat MAO-A (setting [2]) turned out to be 3%.

For the molecule `O=C(Nc1ccc(Cl)c(Cl)c1)c1ccc2[nH]ccc2c1` [Example 2, N-(3,4-dichlorophenyl)-1H-indole-5-carboxamide], the melting point was in the range of 233.8 to 234.8 °C. At human MAO-A, the inhibition at 10 µM is 88%. The inhibition at 10 µM on rat MAO-A (setting [2]) is 70%.

In the case of `Cn1cc2cc(C(=O)Nc3ccc(F)c(Cl)c3)ccc2n1` [Example 18, N-(3-chloro-4-fluorophenyl)-2-methyl-2H-indazole-5-carboxamide], the IC50 on human MAO-B worked out at 8.08 ± 1.05 nM; at human MAO-A (setting [4]) it was 562 ± 62 nM; on rat MAO-A (setting [1]) it was 1690 ± 143 nM; on rat MAO-B (setting [3]), 20.3 ± 3 nM. For the same molecule, the inhibition at 10 µM at human MAO-A is 95%; on rat MAO-A (setting [2]), 90%.

Regarding `Cn1ncc2cc(C(=O)Nc3ccc(F)c(F)c3)ccc21` [Example 19, N-(3,4-difluorophenyl)-1-methyl-1H-indazole-5-carboxamide], the IC50 was 1.52 ± 0.18 nM on human MAO-B, over 10000 nM on human MAO-A, over 10000 nM at rat MAO-A (setting [1]) and 5.65 ± 0.48 nM on rat MAO-B (setting [3]). For the same molecule, the inhibition at 10 µM at human MAO-A amounted to 46%; at rat MAO-A (setting [2]) it was 18%.

Regarding `O=C(Nc1ccc(F)c(Cl)c1)c1ccc2[nH]ncc2c1` [Example 9, N-(3-chloro-4-fluorophenyl)-1H-indazole-5-carboxamide], the half-maximal inhibitory concentration (IC50) on human MAO-A and at rat MAO-A (setting [1]) was over 10000 nM each time. Moreover, the inhibition at 10 µM at human MAO-A came out at 40%; at rat MAO-A (setting [2]), 17%.

The molecule `O=C(Nc1cc(Cl)cc(Cl)c1)c1ccc2[nH]ncc2c1` [Example 8, N-(3,5-dichlorophenyl)-1H-indazole-5-carboxamide] displayed a melting point of 302.7 to 304.8 °C. Also, on human MAO-A, the half-inhibitory concentration (IC50) was under 10000 nM and the inhibition at 10 µM was determined as 65%. Moreover, the inhibition at 10 µM at rat MAO-A (setting [2]) turned out to be 5%.

With `Clc1ccc(/N=C/c2ccc3[nH]ncc3c2)cc1Cl` [Example 22, (E)-N-((1H-indazol-5-yl)methylene)-3,4-dichloroaniline], the inhibition at 10 µM on human MAO-A is 62%; on rat MAO-A (setting [2]), 43%.

On to `O=C(Nc1cnc(Cl)c(Cl)c1)c1ccc2[nH]ncc2c1` [Example 12, N-(5,6-dichloropyridin-3-yl)-1H-indazole-5-carboxamide], for which the half-maximal inhibitory concentration (IC50) at human MAO-B is 5.42 ± 0.2 nM; at human MAO-A it was under 10000 nM; at rat MAO-A (setting [1]) it was under 10000 nM; on rat MAO-B (setting [3]), 26.6 ± 1.5 nM. The inhibition at 10 µM on human MAO-A worked out at 52%; at rat MAO-A (setting [2]), 59%.

On to `Fc1cc(/N=C/c2ccc3[nH]ncc3c2)ccc1Cl` [Example 23, (E)-N-((1H-indazol-5-yl)methylene)-4-chloro-3-fluoroaniline], for which the IC50 on human MAO-B was 1.91 ± 0.27 nM; on human MAO-A it was over 10000 nM; at rat MAO-A it was over 10000 nM; on rat MAO-B it was 25.2 ± 0.11 nM. Moreover, the inhibition at 10 µM was 44% at human MAO-A and 27% on rat MAO-A (setting [2]).

Regarding `O=C(Nc1ccc(Cl)c(F)c1)c1ccc2[nH]ncc2c1` [Example 10, N-(4-chloro-3-fluorophenyl)-1H-indazole-5-carboxamide], the IC50 at human MAO-B was 0.668 ± 0.053 nM; at human MAO-A it was under 10000 nM; at rat MAO-A (setting [1]) it was over 10000 nM; on rat MAO-B (setting [3]), 2.61 ± 0.68 nM. Further, the inhibition at 10 µM came out at 55% on human MAO-A and 30% at rat MAO-A (setting [2]).

In the case of `Clc1cc(/N=C/c2ccc3[nH]ncc3c2)cnc1Cl` [Example 25, (E)-N-((1H-indazol-5-yl)methylene)-5,6-dichloropyridin-3-amine], the IC50 was 0.474 ± 0.02 nM on human MAO-B, under 10000 nM on human MAO-A, over 10000 nM at rat MAO-A and 1.48 ± 0.07 nM on rat MAO-B. The results for the inhibition at 10 µM at human MAO-A and at rat MAO-A (setting [2]) were 67% and 45%, respectively.

In general, inhibition refers to the share of the control response that was lost under treatment. A word on the IC50: it is the concentration at which inhibition is half-maximal. One may read the melting point as the temperature, or range, at which the solid turns liquid.
